The values below come from ChEMBL document CHEMBL5257022, “An integrated overview on pyrrolizines as potential anti-inflammatory, analgesic and antipyretic agents” (Eur J Med Chem, 2016).

For experiment [1], the target named is T1, Prostaglandin G/H synthase 1 (Ovis aries) (UniProt P05979).
T1 sequence (whole entry): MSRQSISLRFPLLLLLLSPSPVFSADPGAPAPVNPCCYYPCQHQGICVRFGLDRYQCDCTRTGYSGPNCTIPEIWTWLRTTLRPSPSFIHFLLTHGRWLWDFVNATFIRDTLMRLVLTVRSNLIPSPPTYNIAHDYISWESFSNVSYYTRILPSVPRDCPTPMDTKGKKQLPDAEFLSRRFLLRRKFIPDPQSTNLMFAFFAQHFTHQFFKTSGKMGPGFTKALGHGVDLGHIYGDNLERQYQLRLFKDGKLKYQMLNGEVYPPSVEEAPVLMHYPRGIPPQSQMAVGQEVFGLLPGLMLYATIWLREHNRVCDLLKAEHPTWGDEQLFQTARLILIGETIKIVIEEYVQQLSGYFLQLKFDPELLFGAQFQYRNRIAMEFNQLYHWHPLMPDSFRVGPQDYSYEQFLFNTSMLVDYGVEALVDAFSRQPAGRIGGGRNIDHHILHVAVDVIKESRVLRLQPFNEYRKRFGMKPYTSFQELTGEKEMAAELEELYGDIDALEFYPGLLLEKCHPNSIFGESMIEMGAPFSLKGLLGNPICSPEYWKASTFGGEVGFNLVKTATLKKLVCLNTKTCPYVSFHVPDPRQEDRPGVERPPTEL
Put plainly: Inhibition of COX1 in ovine thrombocyte at 10 uM relative to control.

Experiment [2] relates to Rattus norvegicus. Put plainly: Antiinflammatory activity in rat assessed as fold change in inhibition of paw edema relative to phenylbutazone. It is filed as functional.
The species named for experiment [3] is Mus musculus. Nature of the experiment: Analgesic activity in mouse assessed as inhibition of acetic acid-induced writhing response relative to aspirin. The experiment is classed as functional. On the technique in general: An intraperitoneal irritant provokes the stretching counted in writhing tests.
Experiment [4] relates to Rattus norvegicus. Put plainly: Antiinflammatory activity in rat assessed as inhibition of paw edema. The experiment is classed as functional.
The target in experiment [5] is Prostaglandin G/H synthase 1 (Homo sapiens, UniProt P23219). Nature of the experiment: Inhibition of COX1 (unknown origin).
Chain of Prostaglandin G/H synthase 1 (P23219 whole entry): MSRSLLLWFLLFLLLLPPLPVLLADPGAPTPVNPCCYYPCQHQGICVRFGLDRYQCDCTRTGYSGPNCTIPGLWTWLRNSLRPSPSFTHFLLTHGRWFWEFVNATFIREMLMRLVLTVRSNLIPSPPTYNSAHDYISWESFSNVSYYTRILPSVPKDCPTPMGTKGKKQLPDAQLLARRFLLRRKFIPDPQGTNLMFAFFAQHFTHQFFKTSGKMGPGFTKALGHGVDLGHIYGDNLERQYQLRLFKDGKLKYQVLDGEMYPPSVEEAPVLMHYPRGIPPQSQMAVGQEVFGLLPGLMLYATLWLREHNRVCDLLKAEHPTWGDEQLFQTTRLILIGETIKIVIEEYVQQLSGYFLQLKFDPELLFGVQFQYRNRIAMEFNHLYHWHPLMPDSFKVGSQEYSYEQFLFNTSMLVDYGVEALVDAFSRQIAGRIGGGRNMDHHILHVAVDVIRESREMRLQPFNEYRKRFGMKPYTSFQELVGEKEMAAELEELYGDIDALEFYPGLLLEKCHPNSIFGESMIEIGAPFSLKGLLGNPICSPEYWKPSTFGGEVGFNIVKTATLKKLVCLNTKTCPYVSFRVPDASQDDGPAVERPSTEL

In experiment [1], `O=C(O)/C=C/c1c(-c2ccc(S(=O)(=O)c3ccccc3)cc2)c(-c2ccccc2)c2n1CCC2` yielded an IP of 0%.

The compound `O=C(O)/C=C/c1c(-c2ccc(-c3ccccc3)cc2)c(-c2ccccc2)c2n1CCC2` displayed an IP in experiment [1] of 35%.

Turning to `O=C(c1ccc(F)cc1)c1ccc2n1CCCCC2C(=O)O` (stereo not drawn), the “fold change (FC)” value is below 1 in experiment [2] and below 1.3 in experiment [3].

As to `CC(=O)Nc1c(C#N)c2n(c1C(=O)Nc1ccccc1C)CCC2`, in experiment [4], the “inhibition (INH)” value came out at 23.2%.

Take `O=C(c1ccccc1)c1ccc2n1CC(C(=O)O)C2` (stereo not drawn): the “fold change (FC)” value is below 1 in experiment [2] and -4 in experiment [3].

For `C[S+]([O-])c1ccc(C(=O)c2ccc3n2CCCC3C(=O)O)cc1` (stereo not drawn), the “fold change (FC)” value is below 0.2 in experiment [2] and -0.5 in experiment [3].

Consider `CC(=O)Nc1c(C#N)c2n(c1C(=O)Nc1ccccc1Cl)CCC2`, for which the “inhibition (INH)” value in experiment [4] worked out at 23.9%.

`O=C(c1ccc2n1CCC2C(=O)O)C1CCC1` (stereo not drawn): the entries for the “fold change (FC)” value in experiment [2] and in experiment [3] were -1.5 and 30, respectively.

In turn, `O=C(O)/C=C/c1c(-c2ccc(O)cc2)c(-c2ccccc2)c2n1CCC2` registered an IP in experiment [1] of 0%.

Consider `O=C(c1ccc(F)cc1)c1ccc2n1CCC2C(=O)O` (stereo not drawn), for which the “fold change (FC)” value in experiment [2] was 61; in experiment [3], 183.

As for `CC(C)(C)C(=O)c1ccc2n1CCC2C(=O)O` (stereo not drawn), the “fold change (FC)” value is on record as 1 in experiment [2] and -10 in experiment [3].

Regarding `CS(=O)(=O)c1ccc(C(=O)c2ccc3n2CCCC3C(=O)O)cc1` (stereo not drawn), the “fold change (FC)” value in experiment [2] is on record as 3; in experiment [3] it was below 1.

On to `Cc1ccccc1NC(=O)c1c(NC(=O)CCl)c(C#N)c2n1CCC2`, for which the “inhibition (INH)” value in experiment [4] is on record as 20.3%.

Regarding `Cc1ccc(C(=O)c2ccc3n2CCCC3C(=O)O)cc1` (stereo not drawn), the “fold change (FC)” value in experiment [2] is reported as below 1; in experiment [3], below 0.5.

As for `O=C(c1ccccc1)c1ccc2n1CCCC2C(=O)O` (stereo not drawn), the figures for the “fold change (FC)” value in experiment [2] and in experiment [3] were below 1 and 9, respectively.

For `Cc1ccccc1NC(=O)c1c(NC(=O)CCN2CCOCC2)c(C#N)c2n1CCC2`, the “inhibition (INH)” value in experiment [4] is given as 3.2%.

Turning to `Nc1ccc(-c2c(-c3ccccc3)c3n(c2/C=C/C(=O)O)CCC3)cc1`, the IP in experiment [1] turned out to be 31%.

`O=C(c1ccc(Cl)cc1)c1ccc2n1CC(C(=O)O)C2` (stereo not drawn): the entries for the “fold change (FC)” value in experiment [2] and in experiment [3] were below 0.3 and below 10, respectively.

Take `N#Cc1ccc(C(=O)c2ccc3n2CCC3C(=O)O)cc1` (stereo not drawn): the “fold change (FC)” value in experiment [2] is below 1; in experiment [3] it was 6.

`N#Cc1c(NC(=O)CN2CCOCC2)c(C(=O)Nc2ccccc2Cl)n2c1CCC2`: in experiment [4], the “inhibition (INH)” value stood at 7.1%.

Consider `COc1ccc(C(=O)c2ccc3n2CCC3C(=O)O)cc1` (stereo not drawn) [ANIROLAC], for which the “fold change (FC)” value was found to be 83 in experiment [2] and 117 in experiment [3].

Regarding `CSc1ccc(C(=O)c2ccc3n2CCCC3C(=O)O)cc1` (stereo not drawn), the “fold change (FC)” value was -1 in experiment [2] and 3 in experiment [3].

Regarding `Cc1ccc(C(=O)c2ccc3n2CCC3C(=O)O)cc1` (stereo not drawn), the figures for the “fold change (FC)” value in experiment [2] and in experiment [3] were 39 and 165, respectively.

In the case of `COc1ccc(C(=O)c2ccc3n2CCCC3C(=O)O)cc1` (stereo not drawn), the “fold change (FC)” value is recorded as below 1.6 in experiment [2] and 1.5 in experiment [3].

Regarding `N#Cc1c(NC(=O)CCl)c(C(=O)Nc2ccccc2Cl)n2c1CCC2`, in experiment [4], the “inhibition (INH)” value came to 22.2%.

In experiment [1], `O=C(O)/C=C/c1c(-c2ccc(S(=O)(=O)Cc3ccccc3)cc2)c(-c2ccccc2)c2n1CCC2` registered an IP of 0%.

Compound `O=C(O)/C=C/c1c(-c2ccc(Nc3ccccc3)cc2)c(-c2ccccc2)c2n1CCC2` returned an IP in experiment [1] of 45%.

Regarding `O=C(c1ccccc1)c1ccc2n1CCCCC2C(=O)O` (stereo not drawn), the “fold change (FC)” value is -0.4 in experiment [2] and -3 in experiment [3].

For `O=C(c1ccc(Cl)cc1)c1c(Cl)cc2n1CCC2C(=O)O` (stereo not drawn), the “fold change (FC)” value in experiment [2] is given as 88; in experiment [3] it was 167.

As to `CC1(C)Cc2c(-c3ccccc3)c(-c3ccsc3)c(CC(=O)O)n2C1`, the IC50 (commonly the midpoint of a concentration-inhibition curve) in experiment [5] came out at 60 nM.

In experiment [1], `O=C(O)/C=C/c1c(-c2ccc(Cc3ccccc3)cc2)c(-c2ccccc2)c2n1CCC2` registered an IP of 28%.

As for `O=C(O)/C=C/c1c(-c2ccc(Nc3cccc(C(F)(F)F)c3)cc2)c(-c2ccccc2)c2n1CCC2`, in experiment [1], the IP came out at 45%.

Consider `N#Cc1c(NC(=O)CCCl)c(C(=O)Nc2ccccc2Cl)n2c1CCC2`, for which the “inhibition (INH)” value in experiment [4] turned out to be 18%.

With `O=C(c1cccc(Cl)c1)c1ccc2n1CCCC2C(=O)O` (stereo not drawn), the “fold change (FC)” value in experiment [2] is listed as 8; in experiment [3] it was -9.

Take `O=C(O)/C=C/c1c(-c2ccc([S+]([O-])Cc3ccccc3)cc2)c(-c2ccccc2)c2n1CCC2` (stereo not drawn): the IP in experiment [1] worked out at 18%.

Turning to `O=C(O)/C=C/c1c(-c2ccc([S+]([O-])c3ccccc3)cc2)c(-c2ccccc2)c2n1CCC2` (stereo not drawn), the IP in experiment [1] is 12%.

In the case of `O=C(c1ccc(Cl)cc1)c1ccc2n1CCCC2C(=O)O` (stereo not drawn), the “fold change (FC)” value is on record as “<=0.6” in experiment [2] and below 1 in experiment [3].

`O=C(O)/C=C/c1c(-c2ccc(Nc3ccc(Cl)cc3)cc2)c(-c2ccccc2)c2n1CCC2` displayed an IP in experiment [1] of 12%.

Consider `O=C(O)/C=C/c1c(-c2ccc(Sc3ccccc3)cc2)c(-c2ccccc2)c2n1CCC2`, for which the IP in experiment [1] turned out to be 40%.

On to `CC1(C)Cc2c(-c3ccccc3)c(-c3occ4ccccc34)c(CC(=O)O)n2C1`, for which the IC50 in experiment [5] is 20 nM.

Regarding `Cc1ccccc1NC(=O)c1c(NC(=O)CCCl)c(C#N)c2n1CCC2`, the “inhibition (INH)” value in experiment [4] is listed as 17.5%.

Compound `O=C(O)/C=C/c1c(-c2ccc(SCc3ccccc3)cc2)c(-c2ccccc2)c2n1CCC2` returned an IC50 in experiment [5] of 5500 nM.

Turning to `O=C(Cc1ccccc1)c1ccc2n1CCC2C(=O)O` (stereo not drawn), the “fold change (FC)” value turned out to be 3 in experiment [2] and 14 in experiment [3].

Take `CC1(C)Cc2c(-c3ccccc3)c(-c3ccco3)c(CC(=O)O)n2C1`: the IC50 in experiment [5] amounted to 130 nM.

Turning to `N#Cc1c(NC(=O)CCN2CCOCC2)c(C(=O)Nc2ccccc2Cl)n2c1CCC2`, the “inhibition (INH)” value in experiment [4] came out at 5.7%.

As to `Cc1c(-c2ccc(Cl)cc2)c(-c2ccccc2)c2n1CC(C)(C)C2=O`, in experiment [5], the IC50 stood at 950 nM.

`O=C(O)/C=C/c1c(-c2ccccc2)c(-c2ccccc2)c2n1CCC2` gave an IP in experiment [1] of 17%.

As to `Cc1ccccc1NC(=O)c1c(NC(=O)CN2CCOCC2)c(C#N)c2n1CCC2`, in experiment [4], the “inhibition (INH)” value worked out at 3.9%.

In the case of `CC1(C)Cc2c(-c3ccccc3)c(-c3ccc(Cl)s3)c(CC(=O)O)n2C1`, the IC50 in experiment [5] came to 210 nM.

Consider `CSc1ccc(C(=O)c2ccc3n2CCCCC3C(=O)O)cc1` (stereo not drawn), for which the “fold change (FC)” value in experiment [2] is listed as below 0.2; in experiment [3], -6.

In the case of `O=C(c1ccc(F)cc1)c1ccc2n1CCCC2C(=O)O` (stereo not drawn), the “fold change (FC)” value is on record as below 1 in experiment [2] and below 10 in experiment [3].
